Measured values reported in patent publication US7629375B2, “Cytoprotective compounds, pharmaceutical and cosmetic formulations, and methods” (Johnson & Johnson Consumer Companies, Inc., priority 2001, dated 2009).

tested on: neonatal cardiomyocytes; test: Myocyte calcium-contractility assay; format: cell-based, rat; conditions: anaerobic chamber 16 hours in DMEM 1 mM glucose, reoxygenation two hours
Method: A. Isolation and Culture of Primary Neonate Myocytes.
The following materials are employed: • 10× Heart Dissection Solution (HDS) contains the following components (g/l) in tissue grade water: NaCl, 68; HEPES, 47.6; NaH2PO4, 2; Glucose, 10; KCl, 4; MgSO4, 1, pH adjusted to 7.4. Prior to filter sterilization of diluted (1×HDS) solution, 10 mg phenol red is added to each 500 milliliters of medium. • Transferrin and Bovine Insulin (available from Life Technologies) are resuspended at a concentration of 4 mg/ml in tissue culture grade water. • DMEM-F12—DMEM/F12, powder, 1:1 containing glutamine and pyridoxine hydrochloride (available from Life Technologies). To one liter equivalent of the powder is added 2.43 g of sodium bicarbonate and 10 ml of 100× Penicillin/Streptomycin in 950 ml of tissue culture grade water with stirring. The pH is adjusted to 7.2 with 1M HCl and volume adjusted to 1 liter. The solution is filter sterilized, followed by the addition of 2.5 ml of 4 mg/ml Transferrin, 250 μl 4 mg/ml Insulin and 30.7 mg of bromodeoxyuridine. • DMEM-F12-5% FBS is also prepared for pre-coating the tissue culture plates and initial suspension of the cardiomyocyte pellet. • Collagenase solution-57.1 mg of collagenase is resuspended in 140 ml 1×HDS.
Tissue culture ware is pre-coated with DMEM-F12-5% FBS by incubating […] per well of a 96-well plate and 0.5 ml per 24-well plate at 37° C.
Two-day old rat pups are removed from their mothers and placed in a sterile container. Pups are dipped quickly into 70% alcohol, then decapitated and the body placed in an empty sterile tissue culture dish. An incision is made starting at the neck and progressing towards the belly, cutting through the sternum. The heart is removed and placed in a tissue culture dishes containing 1×HDS. The atria are trimmed, and the remaining ventricles are placed into a separate tissue culture dish containing 1×HDS, where they are sectioned into 3-4 pieces each. Ventricles are then transferred to a sterile 250 ml glass flask and the 1×HDS is removed. Twenty milliliters of pre-warmed collagenase solution is added to the ventricles, followed by incubation at 37° C. with shaking. After 20 minutes, the collagenase solution is removed and replaced with 20 ml fresh pre-warmed collagenase. Incubation is continued for an additional 20 minutes. At the end of the incubation, any tissue chunks are allowed to settle prior to removing the collagenase (containing the isolated cardiomyocytes) from the disrupted tissue pieces. The isolated myocytes are added to a 50 ml Falcon tube containing 2 ml Fetal Bovine Serum (FBS). The remaining tissue pieces are subjected to a second digestion by adding 20 ml fresh pre-warmed collagenase and incubating as above for 20 minutes. This second digest is then centrifuged at 1000 rpm for 5 minutes (tabletop centrifuge). The resulting supernatant is discarded, and the cell pellet is suspended with 4 ml FBS. The resulting cell suspension is placed in the incubator at 37° C. This step is repeated several additional times to harvest additional material.
Percoll gradients are prepared by adding 2.5 ml of 10×HDS to 22.5 ml of Percoll (Life Technologies) with mixing (Percoll Stock). Top Gradient solution (11 ml Percoll Stock and 14 ml 1×HDS) and Bottom Gradient solution (13 ml Percoll Stock and 7 ml 1×HDS) are prepared. Four milliliters of the Top Gradient solution is transferred into 6×15 ml sterile Falcon tubes. Three milliliters of the Bottom Gradient solution is placed in each tube by inserting a serological pipette to the bottom of the tube and slowly adding the liquid.
All the digests (6) are pooled in one 50 ml Falcon tube and centrifuged on a tabletop centrifuge at 1000 rpm for 10 minutes. The supernatant is discarded, and the cell pellet is resuspended in 12 ml of 1×HDS. Two milliliters of the cell suspension is added to the top of each gradient. […]

Structure (SMILES) | calcium transients (Fluo-4) in amounts indicative of ability guard against ischemic damage and maintain contractile function
COCOc1cc(C=Cc2ccc([N+](=O)[O-])cc2)cc(CC=C(C)C)c1OCOC [1,2-bis-methoxymethoxy-3-(3-methyl-but-2-enyl)-5-[2-(4-nitro-phenyl)-vinyl]-benzene] | presence of calcium transients
COCOc1cc(C=Cc2ccc([N+](=O)[O-])cc2)cc(OCOC)c1CC=C(C)C [1,3-bis-methoxymethoxy-2-(3-methyl-but-2-enyl)-5-[2-(4-nitro-phenyl)-vinyl]-benzene] | presence of calcium transients
COCOc1cc(C=Cc2ccc([N+](=O)[O-])cc2)cc(OCOC)c1 [1,3-bis-methoxymethoxy-5-[2-(4-nitro-phenyl)-vinyl]-benzene] | presence of calcium transients
COCOc1cc(C=Cc2ccc([N+](=O)[O-])cc2)c(CC=C(C)C)c(OCOC)c1 [1,5-bis-methoxymethoxy-2-(3-methyl-but-2-enyl)-3-[2-(4-nitro-phenyl)-vinyl]-benzene] | presence of calcium transients
O=C(O)C(=O)C[n+]1ccc(C=Cc2ccc(O)c(O)c2)cc1.[Br-] [1-(2-Carboxy-2-oxo-ethyl)-4-[2-(3,4-dihydroxy-phenyl)-vinyl]-pyridinium; bromide] | presence of calcium transients
COCOc1c(C/C=C(\C)CCC=C(C)C)cc(C=Cc2ccc([N+](=O)[O-])cc2)cc1OC [1-(3,7-dimethyl-octa-2,6-dienyl)-3-methoxy-2-methoxymethoxy-5-[2-(4-nitro-phenyl)-vinyl]-benzene] | presence of calcium transients
COCOc1c(Br)cc(C=Cc2ccc([N+](=O)[O-])cc2)cc1OC [1-bromo-3-methoxy-2-methoxymethoxy-5-[2-(4-nitro-phenyl)-vinyl]-benzene] | presence of calcium transients
O=C(O)C[n+]1ccc(C=Cc2ccc(O)c(O)c2)cc1.[Br-] [1-carboxymethyl-4-[2-(3,4-dihydroxy-phenyl)-vinyl]-pyridinium; bromide] | presence of calcium transients
COCOc1c(CC=C(C)C)cc(C=Cc2ccc([N+](=O)[O-])cc2)cc1OC [1-methoxy-2-methoxymethoxy-3-(3-methyl-but-2-enyl)-5-[2-(4-nitro-phenyl)-vinyl]-benzene] | presence of calcium transients
Cc1cc(C=Cc2ccc([N+](=O)[O-])cc2)cc(C)c1O [2,6-dimethyl-4-[2-(4-nitro-phenyl)-vinyl]-phenol] | presence of calcium transients
COCOc1cc(C=Cc2ccc([N+](=O)[O-])cc2)cc(OCOC)c1CC=C(C)CCC=C(C)C [2-(3,7-dimethyl-octa-2,6-dienyl)-1,3-bis-methoxymethoxy-5-[2-(4-nitro-phenyl)-vinyl]-benzene] | presence of calcium transients
COCOc1ccc(C=Cc2nccs2)cc1OCOC [2-[2-(3,4-bis-methoxymethoxy-phenyl)-vinyl]-thiazole] | presence of calcium transients
O=C1c2ccccc2C(=O)c2cc(C=Cc3ccc(O)c(O)c3)ccc21 [2-[2-(3,4-dihydroxy-phenyl)-vinyl]-anthraquinone] | presence of calcium transients
COc1cc(C=Cc2ccc([N+](=O)[O-])cc2)cc(Br)c1O [2-bromo-6-methoxy-4-[2-(4-nitro-phenyl)-vinyl]-phenol] | presence of calcium transients
COCOc1ccc(C=CC=Cc2ccc([N+](=O)[O-])cc2)cc1OC [2-methoxy-1-methoxymethoxy-4-[4-(4-nitro-phenyl)-buta-1,3-dienyl]-benzene] | presence of calcium transients
COc1cc(C=CC=Cc2ccc([N+](=O)[O-])cc2)ccc1O [2-methoxy-4-[4-(4-nitro-phenyl)-buta-1,3-dienyl]-phenol] | presence of calcium transients
COCOc1ccc(C=C2C(=O)Oc3ccccc32)cc1OCOC [3-(3,4-bis-methoxymethoxy-benzylidene)-3H-benzofuran-2-one] | presence of calcium transients
CC(C)(C)c1cc(C=C2C(=O)Oc3ccc(O)cc32)cc(C(C)(C)C)c1O [3-(3,5-di-tert-butyl-4-hydroxy-benzylidene)-5-hydroxy-3H-benzofuran-2-one] | presence of calcium transients
O=[N+]([O-])C=Cc1ccc(O)c(O)c1 [4-(2-nitro-vinyl)-benzene-1,2-diol] | presence of calcium transients
CC1=NN(c2ccccc2)C(=O)C1=Cc1ccc(O)c(O)c1 [4-(3,4-dihydroxy-benzylidene)-5-methyl-2-phenyl-2,4-dihydro-pyrazol-3-one] | presence of calcium transients
COC(=O)c1ccc(C=Cc2ccc3[nH]cnc3c2)cc1 [4-[2-(1H-benzoimidazol-5-yl)-vinyl]-benzoic acid methyl ester] | presence of calcium transients
COCOc1ccc(C=Cc2ccnc(-c3cc(C)ccn3)c2)cc1OCOC [4-[2-(3,4-bis-methoxymethoxy-phenyl)-vinyl]-4′-methyl-[2,2′]bipyridinyl] | presence of calcium transients
COCOc1ccc(/C=C/c2ccc(C(=O)N(CCO)CCO)cc2)cc1OCOC [4-[2-(3,4-bis-methoxymethoxy-phenyl)-vinyl]-N,N-bis-(2-hydroxy-ethyl)-benzamide] | presence of calcium transients
COCOc1ccc(C=Cc2ccc(C(=O)OC)c(C(=O)OC)c2)cc1OCOC [4-[2-(3,4-bis-methoxymethoxy-phenyl)-vinyl]-phthalic acid dimethyl ester] | presence of calcium transients
O=C(c1ccc(C=Cc2ccc(O)c(O)c2)cc1)N(CCO)CCO [4-[2-(3,4-dihydroxy-phenyl)-vinyl]-N,N-bis-(2-hydroxy-ethyl)-benzamide] | presence of calcium transients
O=C(O)c1ccc(C=Cc2ccc(O)c(O)c2)cc1 [4-[2-(3,4-dihydroxy-phenyl)-vinyl]-benzoic acid] | presence of calcium transients
COC(=O)c1ccc(C=Cc2cc(C)c(O)c(C)c2)cc1 [4-[2-(4-hydroxy-3,5-dimethyl-phenyl)-vinyl]-benzoic acid methyl ester] | presence of calcium transients
COC(=O)c1ccc(C=Cc2cc(I)c(O)c(OC)c2)cc1 [4-[2-(4-hydroxy-3-iodo-5-methoxy-phenyl)-vinyl]-benzoic acid methyl ester] | presence of calcium transients
